pIC50: −log10 of the molar value.
Experiments:
[1] = tested on: INS+ cells; test: High-content survival / inhibitory curve, hESC-derived INS+ cells; format: cell-based, human
Protocol: (§1) The screening library ToxCast Phase I was obtained from the US Environmental Protection Agency, which contains approximately 2000 compounds dissolved at 20 mM in DMSO. The H1 hESC-derived population was dissociated with Accutase and re-plated onto laminin V-coated 384-well plates at 5000 cells per well. After 16 h incubation, cells were treated with individual compounds from the ToxCast library with four concentrations, including 20 nM, 200 nM, 2 μM, and 20 μM, for each compound. After 4 days, the cells were fixed with 10% formalin and stained with an INS antibody and DAPI, followed by automatic imaging and analysis by ImageXpress^MICRO Automated High-Content Analysis System (Molecular Devices) to count the numbers of INS^+ and INS^− cells. The survival rate was calculated by dividing the numbers of INS^+ cells in compound treated conditions by the average number of INS^+ cells in DMSO-treated conditions. The compounds that induced more than 60% reduction of the survival rate of INS^+ cells and less than 20% of the INS^− cells were chosen as primary hits. Hit compounds were then selected and validated in three additional independent experiments using the same protocol as the primary screening.
hESCs-derived INS^+ cells, MSCs[43], neurons, and hepatocytes[44] were derived based on the reported protocols and re-plated on 96-well plates with Accutase digestion. Cardiomyocytes (CMs) were differentiated from H9-MYH6: mCherry reporter line, based on the reported protocol. After overnight incubation, cells were treated with DMSO or different doses of hit compounds for 4 days. After fixation, the cells were stained with markers for each cell type. DAPI was used to stain cell nuclei. Plates were analyzed by ImageXpress^MICRO Automated High-Content Analysis System.

[2] = tested on: primary human islets; test: Primary human islets, INS and propidium iodide staining; format: cell-based; settings: 2 mM GSH
Excerpt: Fig. 1 A high-content screen identifies propargite as a compound that induces pancreatic β-cell death. a Scheme of pancreatic β-cell differentiation and high-content chemical screen. b Chemical structure of two hit compounds: Propargite and Vacor. c Inhibitory curve and IC50 of propargite or Vacor on INS^+ and INS^− cells (n = 8). d, e Immunocytochemistry analysis (d) and survival rate (e) of H1-derived glucose-responding INS^+ and INS^− cells treated with different doses of propargite (n = 8). Pancreatic β-like cells were stained for INS (green) and all cells were counterstained by DAPI (blue). Scale bars, 100 μm. The survival rate was calculated by dividing the average number of cells in propargite-treated conditions by the average number of cells in the DMSO control. f, g Representative live images (f) and fold-change (g) of INS^w/GFP HES3-derived INS-GFP^+ cells treated with 1.6 μM propargite or DMSO control at different time points compared to initial time 0 (n = 3). Scale bars, 100 μm. h, i, j Representative images (h) and cell survival rate (i) or cell death rate (j) of DMSO or propargite-treated human primary islets (n = 3). Pancreatic β-cells were stained with the INS antibody (green) and dead cells were stained with propidium iodide (PI) (red). Scale bars, 200 μm. Scale bars for higher resolution (Zoom) images, […]. Pancreatic β-cell death rate was calculated by defining percentages of INS^+ PI^+ cells in INS^+ cells, and non-β-cell death rate was calculated by percentages of INS^−PI^+ cells in INS^− cells.

[3] = tested on: MIN6 cells; test: Western blotting of γ-H2A.X and extracellular HMGB1 in MIN6 cells; format: cell-based, mouse; settings: 2 mM GSH, day 4
Excerpt: To extract intracellular protein, cells were placed on ice, washed twice with ice-cold PBS and lysed immediately with RIPA buffer (Life Technologies, 89900) supplemented with a protease inhibitor cocktail (Life Technologies, 78440). Cell lysates were then sonicated and the soluble fraction was collected after centrifugation. Protein amount was quantified by the BCA protein assay (Life Technologies, 23227). To extract extracellular HMGB1, tissue culture media were collected and concentrated using Afyon SDS-PAGE sample preparation kit (advansta, K-02101-025). 20 μg of total protein for each sample was mixed with loading buffer and incubated for 5 min at 95 °C before being loaded into NuPAGE® Novex® 4–12% […] Protein Gels (Life Technologies, NP0321BOX) for electrophoresis. Separated proteins were transferred to a PVDF membrane (Millipore, IPSN07852) after electrophoresis. The membrane was blocked with 5% non-fat milk in TBST (50 mM Tris–HCl at pH 8.0, 150 mM NaCl, 0.1% Tween 20) followed by overnight incubation with the primary antibody at 4 °C. The following antibodies were used with the dilution ratio noted: rabbit anti-HMGB1 (1:1000, Cell Signaling Technology, #6893), rabbit anti-γ-H2A.X (1:1000, Cell Signaling Technology, #9718), rabbit anti-LC3B (1:1000, Cell Signaling Technology, #3868), mouse anti-GSTT1 (1:1000, GeneTex, GTX109250), rabbit anti-GSTM1 (1:1000, R&D system, MAB6894), mouse anti-GAPDH (1:50000, Abcam, ab8245). A peroxidase conjugated horse anti-mouse IgG secondary antibody (1:20000, Vector Laboratories, PI-2000) or peroxidase conjugated goat anti-Rabbit IgG secondary antibody (1:20000, Vector Laboratories, PI-1000) was used for western blot. ECL signals were developed and detected using the SuperSignal™ West Femto Maximum Sensitivity Substrate (Life Technologies, 34094) and a C-DiGit Chemiluminescent Western Blot Scanner (LI-COR). Uncropped scans of all the blots were shown in Supplementary Fig. 7 in the Supplementary Information.

[4] = tested on: INS- cells; test: High-content survival / inhibitory curve, hESC-derived INS- cells; format: cell-based, human; settings: Homo sapiens, 96 h; H1 hESC-derived, β-cell differentiation protocol 1, 4 days treatment, n = 8
Protocol: as §1, with “Hit compounds were then selected and validated in three additional independent experiments using the same protocol as the primary screening.” left out
hESCs-derived INS^+ cells, MSCs[43], neurons, and hepatocytes[44] were derived based on the reported protocols and re-plated on 96-well plates with Accutase digestion. […] Plates were analyzed by ImageXpress^MICRO Automated High-Content Analysis System.

SMILES	rescue of survival rate of INS+ cells after propargite treatment ([1]; 2 mM GSH)	rescue of propargite-induced β-cell-specific death in human islets [2]	rescue of propargite-induced DNA damage (γ-H2A.X expression) [3]	rescue of propargite-induced necrosis (extracellular HMGB1) [3]	pIC50 ([1]; Homo sapiens, 96 h, read-out: IC50 for INS+ cells)	pIC50 [4]
N[C@@H](CCC(=O)N[C@@H](CS)C(=O)NCC(=O)O)C(=O)O [GSH, glutathione, reference compound]	fully rescued	rescued	fully rescued	partially rescued		
O=C(NCc1cccnc1)Nc1ccc([N+](=O)[O-])cc1 [Vacor, N-3 pyridylmethyl-N′’-4-nitrophenyl urea]					5.31	4.21

— publication PMC6240096, “A hPSC-based platform to discover gene-environment interactions that impact human β-cell and dopamine neuron survival” (Nature Communications, 2018)
